In the Kinase Knowledgebase extract (Sharma et al. 2016):
“And” between values parts separate entries of the source, which are not always exact repeats. Equal values may be shown once.

Target: MAPK14 (human) (UniProt Q16539)
Assay: Inhibition of LPS Stimulated TNF Production by U937 Cells
Settings: for inhibition: concentration not given here

Sequence of MAPK14 (human) (Q16539 whole entry, looked up): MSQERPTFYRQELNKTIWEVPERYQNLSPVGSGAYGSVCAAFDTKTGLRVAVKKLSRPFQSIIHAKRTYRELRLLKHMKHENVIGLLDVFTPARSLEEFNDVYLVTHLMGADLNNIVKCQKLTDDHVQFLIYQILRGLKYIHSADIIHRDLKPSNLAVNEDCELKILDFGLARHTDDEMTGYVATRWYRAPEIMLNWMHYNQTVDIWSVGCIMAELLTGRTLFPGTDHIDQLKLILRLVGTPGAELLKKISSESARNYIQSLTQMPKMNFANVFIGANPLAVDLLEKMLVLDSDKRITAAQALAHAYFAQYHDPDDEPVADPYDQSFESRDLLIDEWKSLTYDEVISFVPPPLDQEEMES

SMILES | inhibition | IC50
CC(=O)O[C@@H](C)C(=O)N[C@H](C)c1[nH]nc(-c2ccc(F)cc2)c1-c1ccncc1 | 27% | –
CN(C)c1n[nH]c(-c2ccc(F)cc2)c1-c1ccncc1 | – | 0.484 µM
CC(C)NC(=O)NCCc1[nH]nc(-c2ccc(F)cc2)c1-c1ccncc1 | 54% | –
Fc1ccc(-c2n[nH]cc2-c2ccnc(-c3c[nH]nc3-c3ccc(F)cc3)c2)cc1 | – | 0.602 µM
O=C(NCc1[nH]nc(-c2ccc(F)cc2)c1-c1ccncc1)c1cccs1 | – | > 1 µM
O=C(c1ccc(Cl)cc1)N1CCC(c2[nH]nc(-c3ccc(F)cc3)c2-c2ccncc2)CC1 | – | 0.57 µM
C[C@H](NS(=O)(=O)Cc1ccccc1[N+](=O)[O-])c1[nH]nc(-c2ccc(F)cc2)c1-c1ccncc1 | 88% | –
O=C(NCc1[nH]nc(-c2ccc(F)cc2)c1-c1ccncc1)c1cc(F)cc(F)c1 | 34% | –
Cc1cccc(C)c1NC(=O)NCc1[nH]nc(-c2ccc(F)cc2)c1-c1ccncc1 | – | 2.36 µM
COc1cc(NC(=O)CCNC(=O)Cn2nc(-c3ccc(F)cc3)c(-c3ccncc3)c2C)cc2ccccc12 | – | 4.22 µM
CCCCOc1ccc(S(=O)(=O)N[C@@H](C)c2[nH]nc(-c3ccc(F)cc3)c2-c2ccncc2)cc1 | 80% | –
O=C(NCc1[nH]nc(-c2ccc(F)cc2)c1-c1ccncc1)C(c1ccccc1)c1ccccc1 | 78% | –
OCCn1ncc(-c2ccnc(NCc3ccc(F)cc3)c2)c1-c1ccc(F)cc1 | – | 0.8 µM and 6.02 µM
O=C(NCc1[nH]nc(-c2ccc(F)cc2)c1-c1ccncc1)c1ccc(Cl)nc1 | 15% | –
CCNC(=O)N1CCC(c2[nH]nc(-c3ccc(F)cc3)c2-c2ccncc2)CC1 | – | 0.73 µM
CCOC(=O)c1ccc(NC(=O)NCc2[nH]nc(-c3ccc(F)cc3)c2-c2ccncc2)cc1 | 13% | –
O=C(NCc1[nH]nc(-c2ccc(F)cc2)c1-c1ccncc1)Nc1ccccc1-c1ccccc1 | 2% | –
CNC(=O)CC[C@H](NC(=O)Cc1cccc(OC)c1)c1[nH]nc(-c2ccc(F)cc2)c1-c1ccncc1 | 3% | –
CNC(=O)CC[C@H](NC(=O)C(C)C)c1[nH]nc(-c2ccc(F)cc2)c1-c1ccncc1 | 25% | –

SMILES | inhibition | IC50
O=C(NCCCc1[nH]nc(-c2ccc(F)cc2)c1-c1ccncc1)NCCCn1ccnc1 | – | > 1 µM
Cn1cc(-c2ccncc2)c(-c2cccc(C(F)(F)F)c2)n1 | – | 0.402 µM
Fc1ccc(CNc2cc(-c3cnn(CCN4CCOCC4)c3-c3ccc(F)cc3)ccn2)cc1 | – | 0.45 µM
CC[C@H](C)CNc1cc(-c2c[nH]nc2-c2ccc(Cl)cc2)ccn1 | – | 0.0337 µM
Cc1ccc(S(C)(=O)=O)cc1S(=O)(=O)NCc1[nH]nc(-c2ccc(F)cc2)c1-c1ccncc1 | 23% | –
Cn1cc(-c2ccnc(CCc3ccc(F)cc3)c2)c(-c2ccc(F)cc2)n1 | – | 0.327 µM
Cc1noc(C)c1S(=O)(=O)NCCCc1[nH]nc(-c2ccc(F)cc2)c1-c1ccncc1 | 85% | –
O=S(=O)(NCc1[nH]nc(-c2ccc(F)cc2)c1-c1ccncc1)c1ccccc1C(F)(F)F | 46% | –
C[C@@H](NC(=O)NCCc1[nH]nc(-c2ccc(F)cc2)c1-c1ccncc1)c1ccccc1 | 25% | 5 µM
CN(C)CCn1cc(-c2ccnc(CCc3ccc(F)cc3)c2)c(-c2ccc(F)cc2)n1 | – | > 10 µM
Cc1c(-c2ccncc2)c(-c2ccc(F)cc2)nn1CC(=O)NCCCN1CCN(C)CC1 | 30% | –
O=S(=O)(NCCc1[nH]nc(-c2ccc(F)cc2)c1-c1ccncc1)c1cccc(Cl)c1Cl | 21% | –
OCCn1cc(-c2ccnc(NCc3ccc(F)cc3)c2)c(-c2ccc(F)cc2)n1 | – | 0.14 µM and 0.8 µM
C[C@@H](NS(=O)(=O)c1cccc2ccccc12)c1[nH]nc(-c2ccc(F)cc2)c1-c1ccncc1 | 58% | –
CCc1ccccc1NC(=O)NCc1[nH]nc(-c2ccc(F)cc2)c1-c1ccncc1 | 21% | –
O=C(NCc1[nH]nc(-c2ccc(F)cc2)c1-c1ccncc1)Nc1cc(Cl)cc(Cl)c1 | 20% | –
C[C@@H](NS(=O)(=O)Cc1ccccc1[N+](=O)[O-])c1[nH]nc(-c2ccc(F)cc2)c1-c1ccncc1 | 91% | –
C[C@@H](NS(=O)(=O)c1cc(Cl)c(Cl)s1)c1[nH]nc(-c2ccc(F)cc2)c1-c1ccncc1 | 75% | –
O=C(NCCCc1[nH]nc(-c2ccc(F)cc2)c1-c1ccncc1)NCCCN1CCCC1 | 1% | –

SMILES | inhibition | IC50
Fc1ccc(-c2n[nH]cc2-c2ccnc(NC3CCN(Cc4ccccc4)CC3)c2)cc1 | – | 0.543 µM
CC(=O)Nc1ccc(S(=O)(=O)NCCc2[nH]nc(-c3ccc(F)cc3)c2-c2ccncc2)cc1 | 24% | –
CNC(=O)CC[C@H](NC(=O)Nc1c(C)cccc1C)c1[nH]nc(-c2ccc(F)cc2)c1-c1ccncc1 | 9% | –
C[C@@H](NS(=O)(=O)c1ccccc1C#N)c1[nH]nc(-c2ccc(F)cc2)c1-c1ccncc1 | 81% | –
CCCCOc1ccc(S(=O)(=O)N[C@H](C)c2[nH]nc(-c3ccc(F)cc3)c2-c2ccncc2)cc1 | 67% | –
O=C(NCc1[nH]nc(-c2ccc(F)cc2)c1-c1ccncc1)C1CCCC1 | 13% | –
Cc1ccc(-c2[nH]nc(C)c2-c2ccncc2)c(C)c1 | – | 1.05 µM
Cc1ccc(C(=O)N[C@H](Cc2ccccc2)c2[nH]nc(-c3ccc(F)cc3)c2-c2ccncc2)cc1 | – | > 1 µM
Clc1ccc(-c2n[nH]cc2-c2ccnc(NCc3ccccn3)c2)cc1 | – | 0.166 µM
CCCCS(=O)(=O)N[C@H](C)c1[nH]nc(-c2ccc(F)cc2)c1-c1ccncc1 | 45% | –
Cn1cnc(S(=O)(=O)N2CCC(c3[nH]nc(-c4ccc(F)cc4)c3-c3ccncc3)CC2)c1 | 28% | –
COc1ccc(S(=O)(=O)N[C@@H](C)c2[nH]nc(-c3ccc(F)cc3)c2-c2ccncc2)cc1OC | 66% | –
CCCNC(=O)NCc1[nH]nc(-c2ccc(F)cc2)c1-c1ccncc1 | 39% | –
C[C@@H](NS(=O)(=O)C[C@]12CC[C@@H](CC1=O)C2(C)C)c1[nH]nc(-c2ccc(F)cc2)c1-c1ccncc1 | 65% | –
O=C(NCc1[nH]nc(-c2ccc(F)cc2)c1-c1ccncc1)c1ccc(Cl)cc1 | 19% | –
COc1ccc(S(=O)(=O)NCc2[nH]nc(-c3ccc(F)cc3)c2-c2ccncc2)cc1 | – | 1.78 µM
CS(=O)(=O)N[C@H](Cc1ccccc1)c1[nH]nc(-c2ccc(F)cc2)c1-c1ccncc1 | 17% | –
O=C(NCc1ccc(S(=O)(=O)NCc2[nH]nc(-c3ccc(F)cc3)c2-c2ccncc2)s1)c1ccccc1 | 68% | –
O=S(=O)(c1ccc(F)c(F)c1)N1CCC(c2[nH]nc(-c3ccc(F)cc3)c2-c2ccncc2)CC1 | – | > 1 µM

Further lines, results first:

inhibition | IC50 | SMILES
77% | – | Cc1cccc(Cl)c1S(=O)(=O)N[C@H](C)c1[nH]nc(-c2ccc(F)cc2)c1-c1ccncc1
32% | – | C[C@H](NC(=O)c1cccc(C(F)(F)F)c1)c1[nH]nc(-c2ccc(F)cc2)c1-c1ccncc1
26% | – | C[C@H](NC(=O)Nc1ccc(F)cc1)c1[nH]nc(-c2ccc(F)cc2)c1-c1ccncc1
22% | – | C[C@H](NC(=O)c1cccc(C#N)c1)c1[nH]nc(-c2ccc(F)cc2)c1-c1ccncc1
24% | – | C[C@@H](NC(=O)c1ccccn1)c1[nH]nc(-c2ccc(F)cc2)c1-c1ccncc1
– | 0.64 µM | C[C@@H](NC(=O)c1ccccc1C(F)(F)F)c1[nH]nc(-c2ccc(F)cc2)c1-c1ccncc1
18% | – | C[C@@H](NS(=O)(=O)C(F)(F)F)c1[nH]nc(-c2ccc(F)cc2)c1-c1ccncc1
48% | – | C[C@@H](NC(=O)c1ccc(C(F)(F)F)cc1F)c1[nH]nc(-c2ccc(F)cc2)c1-c1ccncc1
54% | – | C[C@@H](NS(=O)(=O)c1ccccc1)c1[nH]nc(-c2ccc(F)cc2)c1-c1ccncc1
55% | – | C[C@@H](NS(=O)(=O)c1ccc(F)cc1F)c1[nH]nc(-c2ccc(F)cc2)c1-c1ccncc1
25% | – | C[C@@H](NC(=O)c1cccc(C(F)(F)F)c1)c1[nH]nc(-c2ccc(F)cc2)c1-c1ccncc1
15% | – | C[C@H](NC(=O)c1cccc(C(F)(F)F)c1F)c1[nH]nc(-c2ccc(F)cc2)c1-c1ccncc1
45% | – | CC(C)OC(=O)N[C@H](C)c1[nH]nc(-c2ccc(F)cc2)c1-c1ccncc1
36% | – | C[C@@H](NC(=O)c1ccncc1)c1[nH]nc(-c2ccc(F)cc2)c1-c1ccncc1
19% | – | C[C@@H](NC(=O)C1CCC1)c1[nH]nc(-c2ccc(F)cc2)c1-c1ccncc1
28% | – | C[C@H](NC(=O)c1ccno1)c1[nH]nc(-c2ccc(F)cc2)c1-c1ccncc1
48% | – | C[C@H](NC(=O)c1ccccc1Cl)c1[nH]nc(-c2ccc(F)cc2)c1-c1ccncc1

inhibition | IC50 | SMILES
– | > 1 µM | O=C(NCCc1[nH]nc(-c2ccc(F)cc2)c1-c1ccncc1)c1cccc(C(F)(F)F)c1F
54% | – | Cc1c(Cl)cccc1S(=O)(=O)N[C@@H](C)c1[nH]nc(-c2ccc(F)cc2)c1-c1ccncc1
43% | – | C[C@@H](NC(=O)c1cccc(Cl)c1Cl)c1[nH]nc(-c2ccc(F)cc2)c1-c1ccncc1
– | > 1 µM | CNC(=O)CC[C@H](NC(=O)c1cccc(Br)c1)c1[nH]nc(-c2ccc(F)cc2)c1-c1ccncc1
21% | – | COc1ccc(NC(=O)N[C@@H](C)c2[nH]nc(-c3ccc(F)cc3)c2-c2ccncc2)c(OC)c1
50% | – | CNC(=O)N[C@H](C)c1[nH]nc(-c2ccc(F)cc2)c1-c1ccncc1
46% | – | COCC(=O)N[C@H](C)c1[nH]nc(-c2ccc(F)cc2)c1-c1ccncc1
94% | – | C[C@H](NS(=O)(=O)c1ccccc1Cl)c1[nH]nc(-c2ccc(F)cc2)c1-c1ccncc1
20% | – | C[C@H](NC(=O)[C@H]1CCCN1)c1[nH]nc(-c2ccc(F)cc2)c1-c1ccncc1
19% | – | C[C@@H](NC(=O)c1ccccc1)c1[nH]nc(-c2ccc(F)cc2)c1-c1ccncc1
95% | – | C[C@@H](NS(=O)(=O)c1ccc(Cl)s1)c1[nH]nc(-c2ccc(F)cc2)c1-c1ccncc1
29% | – | O=C(NCCc1[nH]nc(-c2ccc(F)cc2)c1-c1ccncc1)c1ccc(F)cc1C(F)(F)F
32% | – | C[C@H](NC(=O)c1ccc(Cl)cc1)c1[nH]nc(-c2ccc(F)cc2)c1-c1ccncc1
29% | – | C[C@H](NC(=O)N[C@@H](C)c1[nH]nc(-c2ccc(F)cc2)c1-c1ccncc1)c1ccccc1
52% | – | C[C@H](NC(=O)c1ccc(F)c(F)c1)c1[nH]nc(-c2ccc(F)cc2)c1-c1ccncc1
81% | – | C[C@H](NS(=O)(=O)c1ccccc1Br)c1[nH]nc(-c2ccc(F)cc2)c1-c1ccncc1
